Patent US20080293681A1, “SPRAYABLE PHARMACEUTICAL COMPOSITIONS COMPRISING A VITAMIN D DERIVATIVE AND AN OILY PHASE” (GALDERMA S.A., priority 2005, published 2008)

Columns and labels:
[1] = Stability of calcitriol in Cetiol SN (cetearyl isononanoate), HPLC assay against reference substance; assay type: physicochemical; conditions: 30 ppm in Cetiol SN with 0.4% BHT
Description: The following example describes the stability data for calcitriol in the various excipients preferred for the composition according to the invention, including caprylic/capric triglycerides and cetearyl isononanoate. Stability of calcitriol in Cetiol SN (cetearyl isononanoate) Solution of calcitriol at 30 ppm in qs 100% of Cetiol SN (cetearyl isononanoate) in the presence of 0.4% of BHT. Assaying technique by HPLC against reference substance. At the initial time (T0), it is considered that the composition contains 100% of calcitriol. Measured concentration of calcitriol as % relative to T0: […]

[2] = Stability of calcitriol in Miglyol 812 (caprylic/capric triglycerides), HPLC assay against reference substance; assay type: physicochemical; conditions: 30 ppm in Miglyol 812 with 0.4% BHT
Description: The following example describes the stability data for calcitriol in the various excipients preferred for the composition according to the invention, including caprylic/capric triglycerides and cetearyl isononanoate. Stability of calcitriol in Miglyol 812 (caprylic/capric triglycerides) Solution of calcitriol at 30 ppm in qs 100% of Miglyol 812 in the presence of 0.4% of BHT. Assaying technique by HPLC against reference substance. At the initial time (T0), it is considered that the composition contains 100% of calcitriol. Measured concentration of calcitriol as % relative to T0: […]

## C=C1/C(=C\C=C2/CCC[C@]3(C)[C@@H]([C@H](C)CCCC(C)(C)O)CC[C@@H]23)C[C@@H](O)C[C@@H]1O [calcitriol]
[1]; +4° C., T 2 weeks
  Measured concentration of calcitriol as % relative to T0: 98.6%
[1]; +4° C., T 4 weeks
  Measured concentration of calcitriol as % relative to T0: 98.1%
[1]; +40° C., T 2 weeks
  Measured concentration of calcitriol as % relative to T0: 99.0%
[1]; +40° C., T 4 weeks
  Measured concentration of calcitriol as % relative to T0: 98.9%
[1]; AT, T 2 weeks
  Measured concentration of calcitriol as % relative to T0: 98.7%
[1]; AT, T 4 weeks
  Measured concentration of calcitriol as % relative to T0: 98.4%
[2]; +4° C., T 2 weeks
  Measured concentration of calcitriol as % relative to T0: 98.3%
[2]; +4° C., T 4 weeks
  Measured concentration of calcitriol as % relative to T0: 105.2%
[2]; +40° C., T 2 weeks
  Measured concentration of calcitriol as % relative to T0: 91%
[2]; +40° C., T 4 weeks
  Measured concentration of calcitriol as % relative to T0: 93.8%
[2]; AT, T 2 weeks
  Measured concentration of calcitriol as % relative to T0: 95.1%
[2]; AT, T 4 weeks
  Measured concentration of calcitriol as % relative to T0: 98.0%
